Experimental data reported in article PMC2678901 (Drug metabolism and disposition: the biological fate of …, 2008).

Tested on: CYP3A
Conditions: 5 μM inhibitor; liver microsomes of RIF-pretreated TgCYP3A4/hPXR mice; 50 μM MDZ

Structure (SMILES): CC(=O)N1CCN(c2ccc(OCC3COC(Cn4ccnc4)(c4ccc(Cl)cc4Cl)O3)cc2)CC1 (stereo not shown) [ketoconazole]
- Inhibition of CYP3A activity: markedly inhibited
